# From paper PMC7922224, “Searching for Small Molecules as Antibacterials: Non-Cytotoxic Diarylureas Analogues of Triclocarban” (Antibiotics, 2021)
# Assays:
# [1] = tested on: S. aureus ATCC 29213; test: MIC by broth microdilution (CLSI); assay type: cell-based, Staphylococcus aureus; conditions: Gram-positive, 37 °C, 24 h, Mueller Hinton Broth; for MIC: Staphylococcus aureus, ATCC29213
# Method: (§1) The in vitro Minimum Inhibitory Concentrations (MICs, μg/mL) were determined by the broth microdilution method according to the Clinical Laboratory Standards Institute (CLSI) guidelines. MIC values were recorded as the lowest concentration of compounds at which there was no optically detectable microorganism growth and evaluated by comparing the growth in each well visually with that of the growth in the control well for bacteria. All compounds were dissolved in dimethyl sulfoxide (DMSO) and were tested in a final concentration range of from 512 to 2 µg/mL. MICs for the reference antibiotic norfloxacin against quality control strains were used to confirm the validity of the screen. According to the CLSI guidelines, diphenylureas were tested in vitro against a panel of Gram-positive and Gram-negative bacteria belonging to the ATCC collection using the standard microdilution test for the determination of MICs. MICs of the synthesised compounds along with the parent compound TCC and with the standard antibiotic norfloxacin are listed in Table 1. The compounds were also analyzed in terms of molecular mass, logP (Table 1), number of hydrogen-bond donors and number of hydrogen-bond acceptors, and most of them obeyed Lipinski’s rule. […] Based on our results, it seems that the 3,4-dichloro-disubstitution pattern, which is present in TCC, is not crucial for activity. […] Moreover, the activity against Enterococcus faecalis was interesting. E. faecalis is a ubiquitous member of the healthy human gut microbiota and also a common opportunistic pathogen and leading cause of nosocomial infections. It has a high incidence for most infections, and the case numbers have been increasing in recent decades, likely due to its greater ability to persist in healthcare facilities and its higher abundance in the human gut microbiome. Kim et al. (2016) compared the bactericidal effects of plain and antibacterial soap containing 0.3% TCC. The authors found no significative difference between the effects of plain and medicated soap at either temperature, with the only exception of E. faecalis ATCC 19433 at 40 °C.
# (§2) MICs (μg/mL) were determined by the broth microdilution method, using 96-well plates, according to CLSI [26]. Stock solutions of the investigated compounds were obtained by setting the concentration at the maximum possible value. Then, the stock solutions were diluted 1:10 with Mueller Hinton Broth (Oxoid, Italy). Afterwards, twofold serial dilutions in the suitable test medium were carried out to obtain a set of concentrations from 512 to 2 µg/mL in the wells. To obtain the stock solution, DMSO (100%) was employed as diluent. The following bacteria strains, available as freeze-dried discs, belonging to the ATCC collection, were used: Gram-positive: S. aureus ATCC 29213, 6538, and 6538P, E. faecalis ATCC 29212; Gram-negative: K. pneuomoniae ATCC 13883, P. aeruginosa ATCC 27853. To conserve the purity of cultures and to enable their reproducibility, cryovials of all microbial strains in the medium were set up and stored at −80 °C. Pre-cultures of each bacterial strain were prepared in Mueller Hinton Broth (MHB) and incubated at 37 °C for 3–5 h. The turbidity of bacterial cell suspension was calibrated to 0.5 McFarland Standard by the spectrophotometric method (OD 625 nm 0.08–0.10), as indicated in the CLSI protocol M7-A9 and, further, the standardized suspension was diluted (1:100) with MHB to reach 1–2 × 10^6 CFU/mL. All wells were seeded with 100 µl of the mentioned final inoculum, and some wells contained only inoculated broth as control growth. […] The MICs were determined by using the assay repeated twice in triplicate. Throughout the study, norfloxacin was used as reference antibiotic. Appropriate controls involved norfloxacin for bacteria as international reference standard. […]
# [2] = tested on: S. aureus ATCC 6538P; test: MIC by broth microdilution (CLSI); assay type: cell-based, Staphylococcus aureus; conditions: Gram-positive, 37 °C, 24 h, Mueller Hinton Broth; for MIC: Staphylococcus aureus, ATCC6538P
# Method: as §1, §2
# [3] = tested on: S. aureus ATCC 6538; test: MIC by broth microdilution (CLSI); assay type: cell-based, Staphylococcus aureus; conditions: Gram-positive, 37 °C, 24 h, Mueller Hinton Broth; for MIC: Staphylococcus aureus, ATCC6538
# Method: as §1, §2
# [4] = tested on: E. faecalis ATCC 29212; test: MIC by broth microdilution (CLSI); assay type: cell-based, Enterococcus faecalis; conditions: Gram-positive, 37 °C, 24 h, Mueller Hinton Broth; for MIC: Enterococcus faecalis, ATCC29212, read-out: MIC E.f. 29212
# Method: as §1, §2
# [5] = tested on: K. pneumoniae ATCC 13883; test: MIC by broth microdilution (CLSI); assay type: cell-based; conditions: Gram-negative, 37 °C, 24 h, Mueller Hinton Broth; for MIC: Klebsiella pneumoniae, ATCC13883, read-out: MIC K.p. 13883
# Method: as §1, §2
# [6] = tested on: P. aeruginosa ATCC 27853; test: MIC by broth microdilution (CLSI); assay type: cell-based; conditions: Gram-negative, 37 °C, 24 h, Mueller Hinton Broth; for MIC: Pseudomonas aeruginosa, ATCC27853
# Method: as §1, §2
# [7] = tested on: E. coli 25922; test: MIC by broth microdilution (CLSI); assay type: cell-based; conditions: Escherichia coli, Gram-negative, 37 °C, 24 h, Mueller Hinton Broth
# [8] = tested on: Staphylococcus aureus; test: MIC by broth microdilution, S. aureus (strain not given); assay type: cell-based; conditions: strain not specified (best value among the ATCC strains), read-out: MIC against S. aureus
# Method: as §1, §2
compound,measurement,setting,value
1-(3-Chloro-4-fluorophenyl)-3-(2-methylphenyl)urea [1gk],MIC S.a. 29213,[1],256 µg/mL
same,MIC S.a. 6538P,[2],64 µg/mL
same,MIC S.a. 6538,[3],128 µg/mL
same,MIC E.f. 29212,[4],64 µg/mL
same,MIC K.p. 13883,[5],256 µg/mL
same,MIC P. a. 27853,[6],256 µg/mL
"COc1ccc(NC(=O)Nc2ccc(C)cc2)cc1 [1ad, 1-(4-Methoxyphenyl)-3-(p-tolyl)urea]",MIC,[1],128 µg/mL
same,MIC,[2],32 µg/mL
same,MIC,[3],32 µg/mL
same,MIC,[4],128 µg/mL
same,MIC,[7],> 256 µg/mL
same,MIC,[5],> 256 µg/mL
same,MIC,[6],> 256 µg/mL
same,MIC,[8],32 µg/mL
"Cc1ccc(NC(=O)Nc2ccc(Cl)c(Cl)c2)cc1 [1ae, 1-(3,4-Dichlorophenyl)-3-p-tolylurea]",MIC,[1],128 µg/mL
same,MIC,[2],64 µg/mL
same,MIC,[3],64 µg/mL
same,MIC,[4],128 µg/mL
same,MIC,[7],> 256 µg/mL
same,MIC,[5],> 256 µg/mL
same,MIC,[6],> 256 µg/mL
same,melting point,,225 to 226 °C
"Cc1ccc(NC(=O)Nc2ccccc2)cc1 [1af, 1-(4-Methylphenyl)-3-phenylurea]",MIC,[1],128 µg/mL
same,MIC,[2],128 µg/mL
same,MIC,[3],64 µg/mL
same,MIC,[4],64 µg/mL
same,MIC,[7],> 256 µg/mL
same,MIC,[5],> 256 µg/mL
same,MIC,[6],> 256 µg/mL
"Cc1ccc(NC(=O)Nc2ccccc2C)cc1 [1ag, 1-(2-Methylphenyl)-3-(4-methylphenyl)urea]",MIC,[1],256 µg/mL
same,MIC,[2],256 µg/mL
same,MIC,[3],128 µg/mL
same,MIC,[4],128 µg/mL
same,MIC,[7],> 256 µg/mL
same,MIC,[5],> 256 µg/mL
same,MIC,[6],> 256 µg/mL
"COc1ccc(NC(=O)Nc2c(C)cccc2C)cc1 [1bd, 1-(4-Methoxyphenyl)-3-(2,6-dimethylphenyl)urea]",MIC,[1],> 256 µg/mL
same,MIC,[2],16 µg/mL
same,MIC,[3],32 µg/mL
same,MIC,[4],128 µg/mL
same,MIC,[7],> 256 µg/mL
same,MIC,[5],> 256 µg/mL
same,MIC,[6],> 256 µg/mL
same,MIC,[8],16 µg/mL
"Cc1cccc(C)c1NC(=O)Nc1ccc(Cl)c(Cl)c1 [1be, 1-(2,6-Dimethylphenyl)-3-(3,4-dichlorophenyl)urea]",MIC,[1],128 µg/mL
same,MIC,[2],128 µg/mL
same,MIC,[3],32 µg/mL
same,MIC,[4],64 µg/mL
same,MIC,[7],> 256 µg/mL
same,MIC,[5],> 256 µg/mL
same,MIC,[6],> 256 µg/mL
same,MIC,[8],32 µg/mL
same,melting point,,249 to 250 °C
"Cc1cccc(C)c1NC(=O)Nc1ccccc1 [1bf, 1-(2,6-Dimethylphenyl)-3-phenylurea]",MIC,[1],> 256 µg/mL
same,MIC,[2],16 µg/mL
same,MIC,[3],16 µg/mL
same,MIC,[4],64 µg/mL
same,MIC,[7],> 256 µg/mL
same,MIC,[5],> 256 µg/mL
same,MIC,[6],> 256 µg/mL
same,MIC,[8],16 µg/mL
same,melting point,,240 to 241 °C
"O=C(Nc1ccc(Cl)cc1)Nc1ccc(Cl)cc1 [1cc (DCC), 1-(4-Chlorophenyl)-3-(4-chlorophenyl)urea]",MIC,[1],256 µg/mL
same,MIC,[2],256 µg/mL
same,MIC,[3],128 µg/mL
same,MIC,[4],128 µg/mL
same,MIC,[7],> 256 µg/mL
same,MIC,[5],> 256 µg/mL
same,MIC,[6],> 256 µg/mL
"O=C(Nc1ccccc1)Nc1ccc(Cl)cc1 [1cf (MCC), 1-(4-Chlorophenyl)-3-phenylurea]",MIC,[1],128 µg/mL
same,MIC,[2],128 µg/mL
same,MIC,[3],64 µg/mL
same,MIC,[4],64 µg/mL
same,MIC,[7],> 256 µg/mL
same,MIC,[5],> 256 µg/mL
same,MIC,[6],> 256 µg/mL
"COc1ccc(NC(=O)Nc2ccc(Cl)c(Cl)c2)cc1 [1de, 1-(3,4-Dichlorophenyl)-3-(4-methoxyl)phenylurea]",MIC,[1],128 µg/mL
same,MIC,[2],64 µg/mL
same,MIC,[3],64 µg/mL
same,MIC,[4],64 µg/mL
same,MIC,[7],> 256 µg/mL
same,MIC,[5],> 256 µg/mL
same,MIC,[6],> 256 µg/mL
"COc1ccc(NC(=O)Nc2ccccc2)cc1 [1df, 1-(4-Methoxyphenyl)-3-phenylurea]",MIC,[1],256 µg/mL
same,MIC,[2],128 µg/mL
same,MIC,[3],64 µg/mL
same,MIC,[4],128 µg/mL
same,MIC,[7],> 256 µg/mL
same,MIC,[5],> 256 µg/mL
same,MIC,[6],256 µg/mL
"O=C(Nc1ccccc1)Nc1ccc(Cl)c(Cl)c1 [1ef, 1-(3,4-Dichlorophenyl)-3-phenylurea]",MIC,[1],256 µg/mL
same,MIC,[2],128 µg/mL
same,MIC,[3],16 µg/mL
same,MIC,[4],128 µg/mL
same,MIC,[7],> 256 µg/mL
same,MIC,[5],> 256 µg/mL
same,MIC,[6],256 µg/mL
same,MIC,[8],16 µg/mL
"Cc1ccccc1NC(=O)Nc1ccc(Cl)c(Cl)c1 [1eg, 1-(3,4-Dichlorophenyl)-3-(2-methylphenyl)urea]",MIC,[1],256 µg/mL
same,MIC,[2],128 µg/mL
same,MIC,[3],64 µg/mL
same,MIC,[4],64 µg/mL
same,MIC,[7],> 256 µg/mL
same,MIC,[5],> 256 µg/mL
same,MIC,[6],> 256 µg/mL
"O=C(Nc1ccccc1)Nc1ccccc1 [1ff (NCC), 1,3-Diphenylurea]",MIC,[1],> 256 µg/mL
same,MIC,[2],64 µg/mL
same,MIC,[3],128 µg/mL
same,MIC,[4],> 256 µg/mL
same,MIC,[7],> 256 µg/mL
same,MIC,[5],> 256 µg/mL
same,MIC,[6],> 256 µg/mL
"Cc1ccccc1NC(=O)Nc1ccccc1 [1fg, 1-(2-Methylphenyl)-3-phenylurea]",MIC,[1],256 µg/mL
same,MIC,[2],16 µg/mL
same,MIC,[3],32 µg/mL
same,MIC,[4],64 µg/mL
same,MIC,[7],> 256 µg/mL
same,MIC,[5],256 µg/mL
same,MIC,[6],> 256 µg/mL
same,MIC,[8],16 µg/mL
same,melting point,,241 to 242 °C
"O=C(Nc1ccccc1)Nc1ccc(F)c(F)c1 [1fj, 1-(3,4-Difluorophenyl)-3-phenylurea]",MIC,[1],256 µg/mL
same,MIC,[2],64 µg/mL
same,MIC,[3],128 µg/mL
same,MIC,[4],128 µg/mL
same,MIC,[5],256 µg/mL
same,MIC,[6],256 µg/mL
same,melting point,,213 to 214 °C
"Cc1ccccc1NC(=O)Nc1ccccc1Cl [1gh, 1-(2-Chlorophenyl)-3-(2-methylphenyl)urea]",MIC,[1],256 µg/mL
same,MIC,[2],32 µg/mL
same,MIC,[3],32 µg/mL
same,MIC,[4],256 µg/mL
same,MIC,[7],> 256 µg/mL
same,MIC,[5],> 256 µg/mL
same,MIC,[6],> 256 µg/mL
same,MIC,[8],32 µg/mL
same,melting point,,223 to 224 °C
"Cc1ccccc1NC(=O)Nc1ccc(F)c(F)c1 [1gj, 1-(3,4-Difluorophenyl)-3-(2-methylphenyl)urea]",MIC,[1],> 256 µg/mL
same,MIC,[2],128 µg/mL
same,MIC,[3],64 µg/mL
same,MIC,[4],64 µg/mL
same,MIC,[7],> 256 µg/mL
same,MIC,[5],> 256 µg/mL
same,MIC,[6],> 256 µg/mL
"Cc1ccccc1NC(=O)Nc1ccccc1F [1gl, 1-(2-Metylphenyl)-3-(2-fluorophenyl)urea]",MIC,[1],128 µg/mL
same,MIC,[2],32 µg/mL
same,MIC,[3],64 µg/mL
same,MIC,[4],128 µg/mL
same,MIC,[7],> 256 µg/mL
same,MIC,[5],> 256 µg/mL
same,MIC,[6],> 256 µg/mL
same,MIC,[8],32 µg/mL
same,melting point,,224 to 225 °C
